US12527325B2, “Pesticidally active diazine-amide compounds” (SYNGENTA CROP PROTECTION AG, priority 2019, dated 2026)

Legend:
Format in all cases: in vivo
Euschistus heros = assay: Example B2: Euschistus heros (Neotropical Brown Stink Bug); settings: 120 h, application rate of 200 ppm, sprayed soybean leaves, N2 nymphs, 5 days after infestation, read-out: control in at least one of the two categories (mortality or growth inhibition)
Description: Example B2: Euschistus heros (Neotropical Brown Stink Bug)
Soybean leaves on agar in 24-well microtiter plates were sprayed with aqueous test solutions prepared from 10′000 ppm DMSO stock solutions. After drying the leaves were infested with N2 nymphs. The samples were assessed for mortality and growth inhibition in comparison to untreated samples 5 days after infestation.

Chilo suppressalis = assay: Example B4: Chilo suppressalis (Striped Rice Stemborer); settings: 144 h, application rate of 200 ppm, artificial diet, L2 larvae, 6 days after infestation, read-out: control in at least one of the three categories (mortality, anti-feedant or growth inhibition)
Description: Example B4: Chilo suppressalis (Striped Rice Stemborer)
24-well microtiter plates with artificial diet were treated with aqueous test solutions prepared from 10′000 ppm DMSO stock solutions by pipetting. After drying, the plates were infested with L2 larvae (6-8 per well). The samples were assessed for mortality, anti-feeding effect, and growth inhibition in comparison to untreated samples 6 days after infestation. Control of Chilo suppressalis by a test sample is given when at least one of the categories mortality, anti-feedant effect, and growth inhibition is higher than the untreated sample.

Plutella xylostella [1] = assay: Example B5: Plutella xylostella (Diamond Back Moth); settings: 192 h, application rate of 200 ppm, 24-well artificial diet, eggs, 8 days after infestation, read-out: control in at least one of the two categories (mortality or growth inhibition)
Description: Example B5: Plutella xylostella (Diamond Back Moth)
24-well microtiter plates with artificial diet were treated with aqueous test solutions prepared from 10′000 ppm DMSO stock solutions by pipetting. After drying, Plutella eggs were pipetted through a plastic stencil onto a gel blotting paper and the plate was closed with it. The samples were assessed for mortality and growth inhibition in comparison to untreated samples 8 days after infestation.

Spodoptera littoralis = assay: Example B9: Spodoptera littoralis (Egyptian Cotton Leaf Worm), cotton leaf disc spray; settings: foliar, 72 h, application rate of 200 ppm, sprayed cotton leaf discs, L1 larvae, 3 days after infestation, read-out: control in at least one of the three categories (mortality, anti-feedant or growth inhibition)
Plutella xylostella [2] = assay: Example B12: Plutella xylostella (Diamondback Moth), 96-well artificial diet; settings: 216 h, application rate of 500 ppm, eggs, 9 days after infestation
Description: Example B12: Plutella xylostella (Diamondback Moth)
96-well microtiter plates containing artificial diet were treated with aqueous test solutions, prepared from 10′000 ppm DMSO stock solutions, by a liquid handling robot. After drying, eggs (˜30 per well) were infested onto a netted lid which was suspended above the diet. The eggs hatch and L1 larvae move down to the diet. The samples were assessed for mortality 9 days after infestation.

Diabrotica balteata = assay: Example B1: Diabrotica balteata (Corn Root Worm); settings: 96 h, application rate of 200 ppm, sprayed maize sprouts, L2 larvae, 4 days after infestation, read-out: control in at least one of the two categories (mortality or growth inhibition)
Description: Example B1: Diabrotica balteata (Corn Root Worm)
Maize sprouts placed onto an agar layer in 24-well microtiter plates were treated with aqueous test solutions prepared from 10′000 ppm DMSO stock solutions by spraying. After drying, the plates were infested with L2 larvae (6 to 10 per well). The samples were assessed for mortality and growth inhibition in comparison to untreated samples 4 days after infestation.

Cc1cnc(-c2nccnc2C(C)NC(=O)c2cc(C(F)(F)F)nc(C3(C#N)CC3)c2)nc1 (centres unmarked) [P2, 2-(1-cyanocyclopropyl)-N-[1-[3-(5-methylpyrimidin-2-yl)pyrazin-2-yl]ethyl]-6-(trifluoromethyl)pyridine-4-carboxamide]
≥ 80%: percent control (mortality or growth inhibition) at 200 ppm (Euschistus heros) | percent control (mortality, anti-feedant effect or growth inhibition) at 200 ppm (Chilo suppressalis) | percent control (mortality or growth inhibition) at 200 ppm (Plutella xylostella [1]) | percent control (mortality, anti-feedant effect or growth inhibition) at 200 ppm (Spodoptera littoralis)

CC(NC(=O)c1cc(C(F)(F)F)cc(C2(C#N)CC2)c1)c1nccnc1-c1ncc(C2CC2)cn1 (centres unmarked) [P3, 3-(1-cyanocyclopropyl)-N-[1-[3-(5-cyclopropylpyrimidin-2-yl)pyrazin-2-yl]ethyl]-5-(trifluoromethyl) benzamide]
≥ 80%: percent control (mortality or growth inhibition) at 200 ppm (Euschistus heros) | percent control (mortality, anti-feedant effect or growth inhibition) at 200 ppm (Chilo suppressalis) | percent control (mortality or growth inhibition) at 200 ppm (Plutella xylostella [1]) | percent control (mortality, anti-feedant effect or growth inhibition) at 200 ppm (Spodoptera littoralis)

CC(NC(=O)c1cc(C(F)(F)F)cc(S(=O)(=O)C(F)(F)F)c1)c1nccnc1-c1ncc(C2CC2)cn1 (centres unmarked) [P11, N-[1-[3-(5-cyclopropylpyrimidin-2-yl)pyrazin-2-yl]ethyl]-3-(trifluoromethyl)-5-(trifluoromethylsulfonyl) benzamide]
≥ 80%: percent control (mortality, anti-feedant effect or growth inhibition) at 200 ppm (Chilo suppressalis) | percent control (mortality or growth inhibition) at 200 ppm (Plutella xylostella [1]) | percent control (mortality, anti-feedant effect or growth inhibition) at 200 ppm (Spodoptera littoralis) | mortality at 500 ppm (Plutella xylostella [2])

CC(NC(=O)c1cc(C(F)(F)F)cc(S(=O)(=O)C(F)(F)F)c1)c1nccnc1-c1ccccn1 (centres unmarked) [P13, N-[1-[3-(2-pyridyl)pyrazin-2-yl]ethyl]-3-(trifluoromethyl)-5-(trifluoromethylsulfonyl) benzamide]
≥ 80%: percent control (mortality or growth inhibition) at 200 ppm (Diabrotica balteata) | percent control (mortality, anti-feedant effect or growth inhibition) at 200 ppm (Chilo suppressalis) | percent control (mortality or growth inhibition) at 200 ppm (Plutella xylostella [1]) | percent control (mortality, anti-feedant effect or growth inhibition) at 200 ppm (Spodoptera littoralis) | mortality at 500 ppm (Plutella xylostella [2])

CC(NC(=O)c1cc(C(F)(F)F)nc(C2(C#N)CC2)c1)c1nccnc1-c1ccc(Cl)cn1 (centres unmarked) [P16, N-[1-[3-(5-chloro-2-pyridyl)pyrazin-2-yl]ethyl]-2-(1-cyanocyclopropyl)-6-(trifluoromethyl)pyridine-4-carboxamide]
≥ 80%: percent control (mortality or growth inhibition) at 200 ppm (Diabrotica balteata) | percent control (mortality, anti-feedant effect or growth inhibition) at 200 ppm (Chilo suppressalis) | percent control (mortality or growth inhibition) at 200 ppm (Plutella xylostella [1]) | percent control (mortality, anti-feedant effect or growth inhibition) at 200 ppm (Spodoptera littoralis) | mortality at 500 ppm (Plutella xylostella [2])

CC(NC(=O)c1cc(C(F)(F)F)cc(C2(C#N)CC2)c1)c1nccnc1-c1ccc(Cl)cn1 (centres unmarked) [P17, N-[1-[3-(5-chloro-2-pyridyl)pyrazin-2-yl]ethyl]-3-(1-cyanocyclopropyl)-5-(trifluoromethyl)benzamide]
≥ 80%: percent control (mortality or growth inhibition) at 200 ppm (Diabrotica balteata) | percent control (mortality, anti-feedant effect or growth inhibition) at 200 ppm (Chilo suppressalis) | percent control (mortality or growth inhibition) at 200 ppm (Plutella xylostella [1]) | percent control (mortality, anti-feedant effect or growth inhibition) at 200 ppm (Spodoptera littoralis) | mortality at 500 ppm (Plutella xylostella [2])

CC(NC(=O)c1cc(C2CC2)cc(C(F)(F)F)c1)c1nccnc1-c1ccc(Cl)cn1 (centres unmarked) [P18, N-[1-[3-(5-chloro-2-pyridyl)pyrazin-2-yl]ethyl]-3-cyclopropyl-5-(trifluoromethyl)benzamide]
≥ 80%: percent control (mortality, anti-feedant effect or growth inhibition) at 200 ppm (Chilo suppressalis) | percent control (mortality or growth inhibition) at 200 ppm (Plutella xylostella [1]) | mortality at 500 ppm (Plutella xylostella [2])

CC(NC(=O)c1cc(C(F)(F)F)cc(C(F)(F)C2CC2)c1)c1nccnc1-c1ccccn1 (centres unmarked) [P20, 3-[cyclopropyl (difluoro)methyl]-N-[1-[3-(2-pyridyl)pyrazin-2-yl]ethyl]-5-(trifluoromethyl) benzamide]
≥ 80%: percent control (mortality or growth inhibition) at 200 ppm (Diabrotica balteata) | percent control (mortality, anti-feedant effect or growth inhibition) at 200 ppm (Chilo suppressalis) | percent control (mortality or growth inhibition) at 200 ppm (Plutella xylostella [1]) | percent control (mortality, anti-feedant effect or growth inhibition) at 200 ppm (Spodoptera littoralis) | mortality at 500 ppm (Plutella xylostella [2])

CC(NC(=O)c1cc(C(F)(F)F)cc(C2(C#N)CC2)c1)c1nccnc1-c1ccc(Br)cn1 (centres unmarked) [P24, N-[1-[3-(5-bromo-2-pyridyl)pyrazin-2-yl]ethyl]-3-(1-cyanocyclopropyl)-5-(trifluoromethyl)benzamide]
≥ 80%: percent control (mortality or growth inhibition) at 200 ppm (Diabrotica balteata) | percent control (mortality, anti-feedant effect or growth inhibition) at 200 ppm (Chilo suppressalis) | percent control (mortality or growth inhibition) at 200 ppm (Plutella xylostella [1]) | percent control (mortality, anti-feedant effect or growth inhibition) at 200 ppm (Spodoptera littoralis) | mortality at 500 ppm (Plutella xylostella [2])

CC(NC(=O)c1cc(C(F)(F)F)nc(C2(C#N)CC2)c1)c1nccnc1-c1ccc(F)cn1 (centres unmarked) [P27, 2-(1-cyanocyclopropyl)-N-[1-[3-(5-fluoro-2-pyridyl)pyrazin-2-yl]ethyl]-6-(trifluoromethyl)pyridine-4-carboxamide]
≥ 80%: percent control (mortality, anti-feedant effect or growth inhibition) at 200 ppm (Chilo suppressalis) | percent control (mortality or growth inhibition) at 200 ppm (Plutella xylostella [1]) | mortality at 500 ppm (Plutella xylostella [2])

CC(NC(=O)c1cc(C(F)(F)F)nc(C2(C#N)CC2)c1)c1nccnc1-c1ccc(Br)cn1 (centres unmarked) [P28, N-[1-[3-(5-bromo-2-pyridyl)pyrazin-2-yl]ethyl]-2-(1-cyanocyclopropyl)-6-(trifluoromethyl)pyridine-4-carboxamide]
≥ 80%: percent control (mortality or growth inhibition) at 200 ppm (Diabrotica balteata) | percent control (mortality, anti-feedant effect or growth inhibition) at 200 ppm (Chilo suppressalis) | percent control (mortality or growth inhibition) at 200 ppm (Plutella xylostella [1]) | percent control (mortality, anti-feedant effect or growth inhibition) at 200 ppm (Spodoptera littoralis) | mortality at 500 ppm (Plutella xylostella [2])

CC(NC(=O)c1cc(C2CC2)cc(C(F)(F)F)c1)c1nccnc1-c1ccccn1 (centres unmarked) [P33, 3-cyclopropyl-N-[1-[3-(2-pyridyl)pyrazin-2-yl]ethyl]-5-(trifluoromethyl)benzamide]
≥ 80%: percent control (mortality or growth inhibition) at 200 ppm (Diabrotica balteata) | percent control (mortality, anti-feedant effect or growth inhibition) at 200 ppm (Chilo suppressalis) | percent control (mortality or growth inhibition) at 200 ppm (Plutella xylostella [1]) | mortality at 500 ppm (Plutella xylostella [2])

CC(NC(=O)c1cc(C2CC2)cc(C(F)(F)F)c1)c1nccnc1-c1ncc(OC(F)F)cn1 (centres unmarked) [P34, 3-cyclopropyl-N-[1-[3-[5-(difluoromethoxy)pyrimidin-2-yl]pyrazin-2-yl]ethyl]-5-(trifluoromethyl)benzamide]
≥ 80%: percent control (mortality or growth inhibition) at 200 ppm (Diabrotica balteata) | percent control (mortality, anti-feedant effect or growth inhibition) at 200 ppm (Chilo suppressalis) | percent control (mortality or growth inhibition) at 200 ppm (Plutella xylostella [1]) | percent control (mortality, anti-feedant effect or growth inhibition) at 200 ppm (Spodoptera littoralis) | mortality at 500 ppm (Plutella xylostella [2])

CC(NC(=O)c1cc(C2CC2)cc(C(F)(F)F)c1)c1nccnc1-c1ncc(C2CC2)cn1 (centres unmarked) [P35, 3-cyclopropyl-N-[1-[3-(5-cyclopropylpyrimidin-2-yl)pyrazin-2-yl]ethyl]-5-(trifluoromethyl)benzamide]
≥ 80%: percent control (mortality or growth inhibition) at 200 ppm (Diabrotica balteata) | percent control (mortality, anti-feedant effect or growth inhibition) at 200 ppm (Chilo suppressalis) | percent control (mortality or growth inhibition) at 200 ppm (Plutella xylostella [1]) | percent control (mortality, anti-feedant effect or growth inhibition) at 200 ppm (Spodoptera littoralis) | mortality at 500 ppm (Plutella xylostella [2])

CC(NC(=O)c1cc(C(F)(F)F)nc(C2(C#N)CC2)c1)c1nccnc1-c1ncc(C2CC2)cn1 (centres unmarked) [P36, 2-(1-cyanocyclopropyl)-N-[1-[3-(5-cyclopropylpyrimidin-2-yl)pyrazin-2-yl]ethyl]-6-(trifluoromethyl)pyridine-4-carboxamide]
≥ 80%: percent control (mortality or growth inhibition) at 200 ppm (Diabrotica balteata) | percent control (mortality, anti-feedant effect or growth inhibition) at 200 ppm (Chilo suppressalis) | percent control (mortality or growth inhibition) at 200 ppm (Plutella xylostella [1]) | percent control (mortality, anti-feedant effect or growth inhibition) at 200 ppm (Spodoptera littoralis) | mortality at 500 ppm (Plutella xylostella [2])

CC(NC(=O)c1cc(C2CC2)cc(C(F)(F)F)c1)c1nccnc1-c1ccc(F)cn1 (centres unmarked) [P40, 3-cyclopropyl-N-[1-[3-(5-fluoro-2-pyridyl)pyrazin-2-yl]ethyl]-5-(trifluoromethyl)benzamide]
≥ 80%: percent control (mortality or growth inhibition) at 200 ppm (Diabrotica balteata) | percent control (mortality, anti-feedant effect or growth inhibition) at 200 ppm (Chilo suppressalis) | percent control (mortality or growth inhibition) at 200 ppm (Plutella xylostella [1]) | percent control (mortality, anti-feedant effect or growth inhibition) at 200 ppm (Spodoptera littoralis) | mortality at 500 ppm (Plutella xylostella [2])

C[C@H](NC(=O)c1cc(C(F)(F)F)cc(C(F)(F)C2CC2)c1)c1nccnc1-c1ccc(Br)cn1 [P42, N-[(1S)-1-[3-(5-bromo-2-pyridyl)pyrazin-2-yl]ethyl]-3-[cyclopropyl(difluoro)methyl]-5-(trifluoromethyl)benzamide]
≥ 80%: percent control (mortality or growth inhibition) at 200 ppm (Diabrotica balteata) | percent control (mortality, anti-feedant effect or growth inhibition) at 200 ppm (Chilo suppressalis) | percent control (mortality or growth inhibition) at 200 ppm (Plutella xylostella [1]) | percent control (mortality, anti-feedant effect or growth inhibition) at 200 ppm (Spodoptera littoralis) | mortality at 500 ppm (Plutella xylostella [2])
